The nature of data set [1]: Color of the Samples 3 hours after dissolution. The class given is physicochemical. Conditions: 3 ml. of distilled water.
The nature of data set [2]: Dissolution time on addition of 3 ml. of distilled water. The format is physicochemical. Conditions: shaken vigorously.
Description: To each of the Samples was added 3 ml. of distilled water and the times of dissolution were measured. […] Provided that, in dissolution, Samples A and B were allowed to stand, while Sample C was shaken vigorously.
The test system of data set [3] is Escherichia coli NIHJ JC-2. As to the kind of experiment: Antibacterial spectrum (agar dilution), M.I.C. The format is cell-based. As to conditions: NIHJJC2. Background: In agar dilution, organisms are placed on agar that contains the substance at set levels.
A short description of data set [4]: Storage stability (general statement). The class given is physicochemical.
The subject of a further data set is Krebsiella pneumoniae DT. The data set can be described thus: Antibacterial spectrum (agar dilution), M.I.C. The format is cell-based.
In data set [5] the test system is Proteus morganii IFO 3848. As to the kind of experiment: Antibacterial spectrum (agar dilution), M.I.C. As to conditions: Morganella morganii, IFO3848. The class given is cell-based.
Data set [6] has as its system local tissue at the sites of injection. As to the kind of experiment: Local reactions at the sites of intramuscular injection (general statement). Conditions: intramuscularly injected. The format is in vivo.
The subject of the next data set is Escherichia coli T-7. The data set can be described thus: Antibacterial spectrum (agar dilution), M.I.C. The format is cell-based. As to conditions: T7. An excerpt: (§1) The antibacterial potency (M.I.C.) and toxicity of TTC
(§2) (1) Antibacterial spectrum (agar dilution)

Another data set relates to Escherichia coli 0-111. The data set can be described thus: Antibacterial spectrum (agar dilution), M.I.C. As to conditions: 0111. The class given is cell-based.
From the text: as §1, §2

The test system of data set [7] is Staphylococcus aureus FDA 209 P. As to the kind of experiment: Antibacterial spectrum (agar dilution), M.I.C. The format is cell-based. As to conditions: FDA209.
Data set [8] can be described thus: Dissolution in a solvent such as distilled water (general statement). The class given is physicochemical.
Data set [9] relates to Proteus vulgaris IFO 3988. As to the kind of experiment: Antibacterial spectrum (agar dilution), M.I.C. The format is cell-based. Conditions: IFO3988.
For data set [10], the system named is Staphylococcus aureus 1840. As to the kind of experiment: Antibacterial spectrum (agar dilution), M.I.C. The class given is cell-based.
Data set [11] has as its system Gram-positive and Gram-negative bacteria. The class given is cell-based.

Structures are written as SMILES. Structures can show the parent of a compound that is named as a salt.

With `CN(C)CCn1nnnc1SCC1=C(C(=O)O)N2C(=O)[C@@H](NC(=O)Cc3csc(=N)[nH]3)[C@H]2SC1` [TTC hydrate, 7β-[2-(2-imino-4-thiazolin-4-yl)acetamido]-3-{1-[2-(N,N-dimethylamino)ethyl]-1-H-tetrazol-5-yl}thiomethyl-3-cephem-4-carboxylic acid dihydrochloride hydrate], in data set [1], the “Color 3 hours after dissolution” value is “Reddish yellow”. This compound had a Dissolution time in data set [2] of 180 s.
Turning to `CN(C)CCn1nnnc1SCC1=C(C(=O)O)N2C(=O)[C@@H](NC(=O)Cc3csc(N)n3)[C@H]2SC1.Cl.Cl` [TTC, 7β-[2-(2-imino-4-thiazolin-4-yl)acetamido]-3-{1-[2-(N,N-dimethylamino)ethyl]-1H-tetrazol-5-yl}thiomethyl-3-cephem-4-carboxylic acid dihydrochloride], the MIC (usually the smallest concentration in the dilution series that meets the test's criterion for growth inhibition) in data set [3] stood at 0.2 µg/mL; with Krebsiella pneumoniae DT it was 0.1 µg/mL; in data set [5], 0.39 µg/mL; in the data set on Escherichia coli T-7, 1.56 µg/mL; against Escherichia coli 0-111, 0.05 µg/mL; in [7] it was 0.39 µg/mL. Moreover, the MIC in [9] was 1.56 µg/mL; in [10], 0.78 µg/mL. Further, the stability in storage entry in [4] is “stable in storage”. For the same compound, in data set [6], the “local reactions at the sites of injection” value is “necrosis of muscle cells, discoloration or brown degeneration of the local tissue, hyperemia and other local reactions at the sites of injection”. In data set [8], the dissolution result is “rather slow to be dissolved”. Moreover, in [11], the antibacterial activity result is “strong antibacterial activity against Gram-positive and Gram-negative bacteria”.

(Values after US4161527A, “Antibiotic compositions” (priority 1976, dated 1979).)
